# Measurements published in patent US20230128907A1, “PARIS POLYPHYLLA SAPONIN EXTRACT WITH ACTIVITY AGAINST MULTIDRUG-RESISTANT BACTERIA AND PREPARATION AND USE THEREOF” (XI'AN KANGYUANSHENG BIOMEDICAL TECHNOLOGY CO., LTD., priority 2021, published 2023).
# Structures can show the parent of a compound that is named as a salt.
# What was measured:
# Type in all cases: cell-based
# [1] = test system: Multidrug-resistant Staphylococcus aureus 222; experiment: MIC by liquid micro-dilution method; set-up: key: “+” means bacterial growth; “−” means no bacterial growth
# Procedure: (§1) The minimum inhibitory concentration (MIC) of the extract was determined by liquid microdilution method.
# (§2) Twenty-four hours before the experiment, the test strains preserved in low temperature were taken out and placed at room temperature. A small amount of bacterial liquid was drawn with a pipette, inoculated into the sterilized and cooled growth medium, and placed in a 35° C. incubator for 24 hours. A pipette was used to transfer a small amount of activated bacterial colonies to a sterilized dry test tube, diluted with medium to a turbidity similar to that of a 0.5 McFarland turbidimetric tube (1.5×10^8 CFU/mL), and then diluted with medium by […], so that the bacterial suspension concentration reaches 1.0×10^6 CFU/mL (diluted twice before being added to the wells, and the final bacterial concentration in the system being 5×10^5 CFU/mL) for MIC measurement.
# (§3) In a sterile 96-well flat-bottom microculture plate, 100 μL of […] positive control solution was added to the No. […] 2-11 well, respectively. No. 12 well was solvent.
# (§4) The plate was incubated in a 30° C. incubator for 24 hours, the experimental results were observed, and the minimum inhibitory concentration (MIC) values were determined. […] The difference was counted as “≤[…].” The above experiments were performed in parallel for 3 times. When the MIC value could be accurately repeated or only differed by one concentration, it was accepted. The higher concentration was used as the MIC value. When the MIC value differed by more than two concentrations, the experiment was repeated until it met the until requested.
# [2] = test system: Multidrug-resistant Staphylococcus aureus 222; experiment: In vitro antibacterial activity of combination of extract and antibacterial drug (MIC, FIC)
# [3] = test system: Salmonella; experiment: MIC by liquid micro-dilution method; set-up: key: “+” means bacterial growth; “−” means no bacterial growth
# Procedure: as §1, §2, §3, §4
# [4] = test system: Salmonella; experiment: In vitro antibacterial activity of combination of extract and antibacterial drug (MIC, FIC)
# [5] = test system: Escherichia coli; experiment: MIC by liquid micro-dilution method; set-up: key: “+” means bacterial growth; “−” means no bacterial growth
# Procedure: as §1, §2, §3, §4
# [6] = test system: Escherichia coli; experiment: In vitro antibacterial activity of combination of extract and antibacterial drug (MIC, FIC)
# [7] = test system: Multidrug-resistant Pseudomonas aeruginosa 174; experiment: MIC by liquid micro-dilution method; set-up: key: “+” means bacterial growth; “−” means no bacterial growth
# Procedure: as §1, §2, §3, §4
# [8] = test system: Multidrug-resistant Pseudomonas aeruginosa 174; experiment: In vitro antibacterial activity of combination of extract and antibacterial drug (MIC, FIC)
# [9] = Table 4, positive control 128 μg/mL (Table 3)
# [10] = Table 6, positive control 128 μg/mL (Table 3)
# [11] = Table 8, positive control 128 μg/mL (Table 3)
# [12] = drug MIC in combination with the Paris Polyphylla Saponin Extract
# [13] = Table 7, positive control 128 μg/mL (Table 3)
compound,measurement,setting,value
Cc1nnc(SCC2=C(C(=O)O)N3C(=O)[C@@H](NC(=O)Cn4cnnn4)[C@H]3SC2)s1 [Cefazolin sodium],bacterial growth,[1]; [9],−
same,bacterial growth,[1]; [10],−
same,bacterial growth,[1]; [11],−
same,Combination Treatment MIC Combination,[2]; [12],16 µg/mL
same,Combination Treatment MIC Single,[2]; drug alone,128 µg/mL
C[C@H]1COc2c(N3CCN(C)CC3)c(F)cc3c(=O)c(C(=O)O)cn1c23 [Levofloxacin hydrochloride],bacterial growth,[3]; [9],−
same,bacterial growth,[3]; [10],−
same,bacterial growth,[3]; [13],−
same,bacterial growth,[3]; [11],−
same,Combination Treatment MIC Combination,[4]; [12],2 µg/mL
same,Combination Treatment MIC Single,[4]; drug alone,4 µg/mL
CO/N=C(\C(=O)N[C@@H]1C(=O)N2C(C(=O)O)=C(CSc3nc(=O)c(=O)[nH]n3C)CS[C@H]12)c1csc(N)n1 [Ceftriaxone sodium],bacterial growth,[5]; [9],−
same,bacterial growth,[5]; [10],−
same,bacterial growth,[5]; [13],−
same,bacterial growth,[5]; [11],−
same,Combination Treatment MIC Combination,[6]; [12],0.5 µg/mL
same,Combination Treatment MIC Single,[6]; drug alone,2 µg/mL
CC1CCC2(OC1)OC1CC3C4CC=C5CC(OC6OC(CO)C(OC7OC(C)C(OC8OC(C)C(O)C(O)C8O)C(O)C7O)C(O)C6OC6OC(C)C(O)C(O)C6O)CCC5(C)C4CCC3(C)C1C2C (stereo not drawn) [Polyphyllin II],bacterial growth,"[1]; Table 6, 0.25 μg/mL",+
same,bacterial growth,"[1]; Table 6, 0.5 μg/mL",+
same,bacterial growth,"[1]; Table 6, 1 μg/mL",+
same,bacterial growth,"[1]; Table 6, 2 μg/mL",+
same,bacterial growth,"[1]; Table 6, 4 μg/mL",+
same,bacterial growth,"[1]; Table 6, 8 μg/mL",+
same,bacterial growth,"[1]; Table 6, 16 μg/mL",+
same,bacterial growth,"[1]; Table 6, 32 μg/mL",+
same,bacterial growth,"[1]; Table 6, 64 μg/mL",+
same,bacterial growth,"[1]; Table 6, 128 μg/mL",+
same,bacterial growth,"[1]; Table 6, 256 μg/mL",+
same,bacterial growth,"[1]; Table 6, 512 μg/mL",+
same,bacterial growth,"[1]; Table 6, 1024 μg/mL",+
same,bacterial growth,"[3]; Table 6, 0.25 μg/mL",+
same,bacterial growth,"[3]; Table 6, 0.5 μg/mL",+
same,bacterial growth,"[3]; Table 6, 1 μg/mL",+
same,bacterial growth,"[3]; Table 6, 2 μg/mL",+
same,bacterial growth,"[3]; Table 6, 4 μg/mL",+
same,bacterial growth,"[3]; Table 6, 8 μg/mL",+
same,bacterial growth,"[3]; Table 6, 16 μg/mL",+
same,bacterial growth,"[3]; Table 6, 32 μg/mL",+
same,bacterial growth,"[3]; Table 6, 64 μg/mL",+
same,bacterial growth,"[3]; Table 6, 128 μg/mL",+
same,bacterial growth,"[3]; Table 6, 256 μg/mL",+
same,bacterial growth,"[3]; Table 6, 512 μg/mL",+
same,bacterial growth,"[3]; Table 6, 1024 μg/mL",+
same,bacterial growth,"[5]; Table 6, 0.25 μg/mL",+
same,bacterial growth,"[5]; Table 6, 0.5 μg/mL",+
same,bacterial growth,"[5]; Table 6, 1 μg/mL",+
same,bacterial growth,"[5]; Table 6, 2 μg/mL",+
same,bacterial growth,"[5]; Table 6, 4 μg/mL",+
same,bacterial growth,"[5]; Table 6, 8 μg/mL",+
same,bacterial growth,"[5]; Table 6, 16 μg/mL",+
same,bacterial growth,"[5]; Table 6, 32 μg/mL",+
same,bacterial growth,"[5]; Table 6, 64 μg/mL",+
same,bacterial growth,"[5]; Table 6, 128 μg/mL",+
same,bacterial growth,"[5]; Table 6, 256 μg/mL",+
same,bacterial growth,"[5]; Table 6, 512 μg/mL",+
same,bacterial growth,"[5]; Table 6, 1024 μg/mL",+
CC1CCC2(OC1)OC1CC3C4CC=C5CC(OC6OC(CO)C(OC7OC(C)C(OC8OC(C)C(O)C(O)C8O)C(O)C7O)C(O)C6OC6OC(C)C(O)C(O)C6O)CCC5(C)C4CCC3(C)C1(O)C2C (stereo not drawn) [Polyphyllin VII],bacterial growth,"[1]; Table 8, 0.25 μg/mL",+
same,bacterial growth,"[1]; Table 8, 0.5 μg/mL",+
same,bacterial growth,"[1]; Table 8, 1 μg/mL",+
same,bacterial growth,"[1]; Table 8, 2 μg/mL",+
same,bacterial growth,"[1]; Table 8, 4 μg/mL",+
same,bacterial growth,"[1]; Table 8, 8 μg/mL",+
same,bacterial growth,"[1]; Table 8, 16 μg/mL",+
same,bacterial growth,"[1]; Table 8, 32 μg/mL",+
same,bacterial growth,"[1]; Table 8, 64 μg/mL",+
same,bacterial growth,"[1]; Table 8, 128 μg/mL",+
same,bacterial growth,"[1]; Table 8, 256 μg/mL",+
same,bacterial growth,"[1]; Table 8, 512 μg/mL",+
same,bacterial growth,"[1]; Table 8, 1024 μg/mL",+
same,bacterial growth,"[3]; Table 8, 0.25 μg/mL",+
same,bacterial growth,"[3]; Table 8, 0.5 μg/mL",+
same,bacterial growth,"[3]; Table 8, 1 μg/mL",+
same,bacterial growth,"[3]; Table 8, 2 μg/mL",+
same,bacterial growth,"[3]; Table 8, 4 μg/mL",+
same,bacterial growth,"[3]; Table 8, 8 μg/mL",+
same,bacterial growth,"[3]; Table 8, 16 μg/mL",+
same,bacterial growth,"[3]; Table 8, 32 μg/mL",+
same,bacterial growth,"[3]; Table 8, 64 μg/mL",+
same,bacterial growth,"[3]; Table 8, 128 μg/mL",+
same,bacterial growth,"[3]; Table 8, 256 μg/mL",+
same,bacterial growth,"[3]; Table 8, 512 μg/mL",+
same,bacterial growth,"[3]; Table 8, 1024 μg/mL",+
same,bacterial growth,"[7]; Table 8, 0.25 μg/mL",+
same,bacterial growth,"[7]; Table 8, 0.5 μg/mL",+
same,bacterial growth,"[7]; Table 8, 1 μg/mL",+
same,bacterial growth,"[7]; Table 8, 2 μg/mL",+
same,bacterial growth,"[7]; Table 8, 4 μg/mL",+
same,bacterial growth,"[7]; Table 8, 8 μg/mL",+
same,bacterial growth,"[7]; Table 8, 16 μg/mL",+
same,bacterial growth,"[7]; Table 8, 32 μg/mL",+
same,bacterial growth,"[7]; Table 8, 64 μg/mL",+
same,bacterial growth,"[7]; Table 8, 128 μg/mL",+
same,bacterial growth,"[7]; Table 8, 256 μg/mL",+
same,bacterial growth,"[7]; Table 8, 512 μg/mL",+
same,bacterial growth,"[7]; Table 8, 1024 μg/mL",+
same,bacterial growth,"[5]; Table 8, 0.25 μg/mL",+
same,bacterial growth,"[5]; Table 8, 0.5 μg/mL",+
same,bacterial growth,"[5]; Table 8, 1 μg/mL",+
same,bacterial growth,"[5]; Table 8, 2 μg/mL",+
same,bacterial growth,"[5]; Table 8, 4 μg/mL",+
same,bacterial growth,"[5]; Table 8, 8 μg/mL",+
same,bacterial growth,"[5]; Table 8, 16 μg/mL",+
same,bacterial growth,"[5]; Table 8, 32 μg/mL",+
same,bacterial growth,"[5]; Table 8, 64 μg/mL",+
same,bacterial growth,"[5]; Table 8, 128 μg/mL",+
same,bacterial growth,"[5]; Table 8, 256 μg/mL",+
same,bacterial growth,"[5]; Table 8, 512 μg/mL",+
same,bacterial growth,"[5]; Table 8, 1024 μg/mL",+
Gentamicin sulfate,bacterial growth,[7]; [9],−
same,bacterial growth,[7]; [11],−
same,Combination Treatment MIC Combination,[8]; [12],0.125 µg/mL
same,Combination Treatment MIC Single,[8]; drug alone,0.125 µg/mL
C[C@@H]1CC[C@@]2(OC1)O[C@H]1C[C@H]3[C@@H]4CC=C5C[C@@H](O[C@@H]6O[C@H](CO)[C@@H](O)[C@H](O)[C@H]6O[C@@H]6O[C@@H](C)[C@H](O)[C@@H](O)[C@H]6O)CC[C@]5(C)[C@H]4CC[C@]3(C)[C@@]1(O)[C@@H]2C [Polyphyllin VI],bacterial growth,"[3]; Table 7, Conc. 0.25 μg/mL",+
same,bacterial growth,"[3]; Table 7, Conc. 0.5 μg/mL",+
same,bacterial growth,"[3]; Table 7, Conc. 1 μg/mL",+
same,bacterial growth,"[3]; Table 7, Conc. 2 μg/mL",+
same,bacterial growth,"[3]; Table 7, Conc. 4 μg/mL",+
same,bacterial growth,"[3]; Table 7, Conc. 8 μg/mL",+
same,bacterial growth,"[3]; Table 7, Conc. 16 μg/mL",+
same,bacterial growth,"[3]; Table 7, Conc. 32 μg/mL",+
same,bacterial growth,"[3]; Table 7, Conc. 64 μg/mL",+
same,bacterial growth,"[3]; Table 7, Conc. 128 μg/mL",+
same,bacterial growth,"[5]; Table 7, Conc. 0.25 μg/mL",+
same,bacterial growth,"[5]; Table 7, Conc. 0.5 μg/mL",+
same,bacterial growth,"[5]; Table 7, Conc. 1 μg/mL",+
same,bacterial growth,"[5]; Table 7, Conc. 2 μg/mL",+
same,bacterial growth,"[5]; Table 7, Conc. 4 μg/mL",+
same,bacterial growth,"[5]; Table 7, Conc. 8 μg/mL",+
same,bacterial growth,"[5]; Table 7, Conc. 16 μg/mL",+
same,bacterial growth,"[5]; Table 7, Conc. 32 μg/mL",+
same,bacterial growth,"[5]; Table 7, Conc. 64 μg/mL",+
same,bacterial growth,"[5]; Table 7, Conc. 128 μg/mL",+
